# According to patent US11266626B2, “Reduction of ER-MAM-localized APP-C99 and methods of treating alzheimer's disease” (THE TRUSTEES OF COLUMBIA UNIVERSITY IN THE CITY OF NEW YORK, priority 2015, dated 2022):
# “Also recorded” adds a separate entry of the source.
# Legend:
# SH-SY5Y cells = assay: Staining of lipid droplets with LipidTox Green; format: cell-based, human; settings: DAPT 10 μM alone or with BI 100 nM
# ACAT1 = assay: ACAT activity assay (conversion of 3H-cholesterol to cholesteryl esters); format: cell-based, mouse; settings: PS-DKO cells; 100 nM BI, 12-16 h
# Method: To measure cholesterol uptake in vivo, cultured cells were incubated in serum-free medium for 2 h to remove all exogenous lipids. After that, 2.5 μCi/ml of 3H-cholesterol was added to FBS-free DMEM containing 2% FAF-BSA, allowed to equilibrate for at least 30 min at 37° C., and the radiolabeled medium was added to the cells for the indicated periods of time. Cells were then washed and collected in DPBS, removing a small aliquot for protein quantification. Lipids were extracted in 3 volumes of chloroform:methanol (2:1 v/v). After vortexing and centrifugation at 8000×g for 5 min, the organic phase was blown to dryness under nitrogen. […] Iodine-stained bands corresponding to cholesterol and cholesteryl esters were scraped and counted.
# (§1) To measure cholesterol esterification in vivo, cultured cells were incubated in serum-free medium for 2 h to remove all exogenous lipids. […] Cells were then washed and collected in DPBS, removing a small aliquot for protein quantification. […] Iodine-stained bands corresponding to cholesterol and cholesteryl esters were scraped and counted.
# as §1
# PS-DKO cells = assay: Seahorse analysis of mitochondrial respiration (OCR); format: cell-based, mouse; settings: BI 100 nM, myriocin 5 μM, TAPI-1 5 μM, 12-16 h, Aβ40:Aβ42 10:1, 6 ng/ml
# Method: Respirometry of cultured cells was performed using the XF24e Extracellular Flux Analyzer (Seahorse Bioscience). Oxygen consumption was measured in basal conditions (Seahorse media with 25 mM glucose and 2 mM pyruvate) and after the sequential addition of 1 μM oligomycin (Complex V inhibitor), 0.75 μM FCCP (uncoupler) and 1 μM rotenone/1 μM antimycin A (Complex I and Complex III inhibitors respectively).
# Respirometry of cultured cells was performed using the XF24e Extracellular Flux Analyzer (Seahorse Bioscience). Oxygen consumption was measured in basal conditions (Seahorse media with 25 mM glucose and 2 mM pyruvate) and after the sequential addition of 1 μM oligomycin (complex V inhibitor), 0.75 μM FCCP (uncoupler), and 1 μM rotenone/1 μM antimycin A (complex I and complex III inhibitors, respectively). All results were averages of five or more biological replicates. Every biological replicate consisted of three technical replicates. For every technical replicate, we plated equal number of cells (25,000 cell/well when MEFs were used, and 50,000 cells/well when human primary fibroblasts were analyzed). The number of cells was also counted after every respirometry assay to correct for cell death. All oxygen consumption (OCR) data were normalized by the number of viable cells or by protein quantity when isolated mitochondria were used.
Structure (SMILES),accumulation of lipid droplets (LDs) (SH-SY5Y cells),incorporation of radiolabeled cholesterol into cholesteryl esters (ACAT1 activity) (ACAT1),"mitochondrial respiration (initial oxygen consumption rate, OCR) (PS-DKO cells)"
C[C@H](NC(=O)Cc1cc(F)cc(F)c1)C(=O)N[C@H](C(=O)OC(C)(C)C)c1ccccc1 [DAPT],LDs also accumulated; also recorded: Lipid droplets also accumulated,,
"C[C@@H](NC(=O)c1cc(C(=O)N[C@@H](Cc2ccccc2)[C@H](O)CNC2CC2)cc(N(C)S(C)(=O)=O)c1)c1ccccc1 [BI, β-secretase inhibitor IV]",,reduced significantly the incorporation of radiolabeled cholesterol into cholesterol esters; also recorded: reduced the incorporation of cholesterol into cholesteryl esters,reversed the defect in mitochondrial respiration; also recorded: rescued the respiration defects
